US20020137929A1, “1 - (3-heterocyclylphenyl) isothiourea, -isourea, -guanidine and -amidine herbicidal agents” (Intellectual Property Department, BASF Aktiengesellschaft, priority 1998, published 2002)

Assays:
[1] = test system: CHEAL (Lambsquarters, Common); test: Preemergence herbicidal evaluation; assay type: in vivo, Chenopodium album; conditions: rated 4-5 weeks after treatment
Description: (§1) Results of herbicide evaluation are expressed on a rating scale (0-9). The scale is based upon a visual observation of plant stand, vigor, malformation, size, chlorosis and overall plant appearance as compared with a control.
(§2) The preemergence herbicidal activity of the test compounds of the present invention is exemplified by the following tests in which the seeds of a variety of monocotyledonous and dicotyledonous plants are separately mixed with potting soil and planted on top of approximately one inch of soil in separate pint cups. After planting, the cups are sprayed with the selected aqueous acetone solution containing test compound in sufficient quantity to provide the equivalent of about 0.0156 to 0.500 kg per hectare of test compound per cup. The treated cups are then placed on greenhouse benches, watered and cared for in accordance with conventional greenhouse procedures. From four to five weeks after treatment, the tests are terminated and each cup is examined and rated according to the rating system provided in Example 37.
(§3) The compounds evaluated are reported by compound number given in Example 37.

[2] = test system: ABUTH (Velvetleaf); test: Postemergence herbicidal evaluation; assay type: in vivo, Abutilon theophrasti; conditions: postemergence
In short: (§4)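 Herbicidal effect was judged by eye on a 0–9 scale covering stand, vigor, deformity, size and chlorosis, compared with controls, four to five weeks after seedlings about two weeks old were sprayed (40 psi, ~0.0156–0.500 kg/ha).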

[3] = test system: CYPSE (Flatsedge); test: Preemergence weed control under flooded paddy conditions; assay type: in vivo, Cyperus serotinus; conditions: rated 3-4 weeks after treatment
In short: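 Silt loam, seeds in top 0.5 cm; flood held 1.5-3 cm; test cpd as acetone/water 50/50 into flood water, ~0.0313-0.500 kg/ha a.i.; greenhouse 3-4 wk; visual 0-9 score vs control.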

[4] = test system: AMBEL (Ragweed, Common); test: Postemergence herbicidal evaluation; assay type: in vivo, Ambrosia artemisifolia; conditions: postemergence
Description: (§5) In the tests, seedling plants are grown in jiffy flats for about two weeks. The test compounds are dispersed in 50/50 acetone/water mixtures containing 0.5% TWEEN®20, a polyoxyethylene sorbitan monolaurate surfactant of Atlas Chemical Industries, in sufficient quantities to provide the equivalent of about 0.0156 kg to 0.500 kg per hectare of active compound when applied to the plants through a spray nozzle operating at 40 psi for a predetermined time. After spraying, the plants are placed on greenhouse benches and are cared for in accordance with conventional greenhouse procedures. From four to five weeks after treatment, the seedling plants are examined and rated according to the rating system set forth below. Where more than one test is involved for a given compound, the data are averaged.
(§6) Plant species employed in these evaluations are reported by header abbreviation, common name and scientific name.
as §1

[5] = test system: GALAP (Galium); test: Preemergence herbicidal evaluation; assay type: in vivo, Galium aparine; conditions: rated 4-5 weeks after treatment
Description: as §1, §2, §3

[6] = test system: ORYSAT (Rice, Tebonnet); test: Postemergence herbicidal evaluation; assay type: in vivo, Oryza sativa, (L.) Tebonnet; conditions: postemergence
Description: as §5, §6, §1

[7] = test system: CASOB (Sicklepod); test: Preemergence herbicidal evaluation; assay type: in vivo, Cassia obtusifolia; conditions: rated 4-5 weeks after treatment
Description: as §1, §2, §3

[8] = test system: GLXMAW (Soybean, Williams); test: Postemergence herbicidal evaluation; assay type: in vivo, Glycine max, (L.) Merr. cv Williams; conditions: postemergence
In short: as §4

[9] = test system: AMBEL (Ragweed, Common); test: Preemergence herbicidal evaluation; assay type: in vivo, Ambrosia artemisifolia; conditions: rated 4-5 weeks after treatment
Description: as §1, §2, §3

[10] = test system: ECHCG (Barnyardgrass); test: Postemergence herbicidal evaluation; assay type: in vivo, Echinochloa crus-galli; conditions: postemergence
In short: as §4

[11] = test system: CHEAL (Lambsquarters, Common); test: Postemergence herbicidal evaluation; assay type: in vivo, Chenopodium album; conditions: postemergence
Description: as §5, §6, §1

[12] = test system: ZEAMX (Corn, Field); test: Postemergence herbicidal evaluation; assay type: in vivo, Zea mays; conditions: postemergence
In short: as §4

[13] = rate 0.1250 kg/ha, rating scale 0-9
[14] = rate 0.2500 kg/ha, rating scale 0-9

SMILES: Cc1ccc(CN2C(=O)CSC2=Nc2cc(-n3c(=O)cc(C(F)(F)F)n(C)c3=O)c(F)cc2Cl)cc1Cl [Compound 149, 3-{4-Chloro-5-{[3-(3-chloro-4-methylbenzyl)-4-oxo-2-thiazolidinylidene]amino}-2-fluorophenyl}-1-methyl-6-(trifluoromethyl)-2,4(1H,3H)-pyrimidinedione]
- Preemergence herbicidal rating CHEAL [1, 13]: 3.0
- Preemergence herbicidal rating CHEAL [1, 14]: 9.0
- Herbicidal rating ABUTH ([2]; rate 0.0156 kg/ha): 4.0
- Herbicidal rating ABUTH ([2]; rate 0.0313 kg/ha): 8.0
- Herbicidal rating ABUTH ([2]; rate 0.0625 kg/ha): 9.0
- herbicidal effect rating, CYPSE ([3]; 0.0313 kg/ha): 0.0
- herbicidal effect rating, CYPSE ([3]; 0.0625 kg/ha): 0.0
- herbicidal effect rating, CYPSE ([3]; 0.1250 kg/ha): 0.0
- herbicidal effect rating, CYPSE ([3]; 0.2500 kg/ha): 0.0
- Herbicidal rating AMBEL ([4]; rate 0.0156 kg/ha): 4.0
- Herbicidal rating AMBEL ([4]; rate 0.0313 kg/ha): 9.0
- Herbicidal rating AMBEL ([4]; rate 0.0625 kg/ha): 9.0
- Preemergence herbicidal rating GALAP [5, 13]: 0.0
- Preemergence herbicidal rating GALAP [5, 14]: 0.0
- Herbicidal rating ORYSAT ([6]; rate 0.0156 kg/ha): 0.5
- Herbicidal rating ORYSAT ([6]; rate 0.0313 kg/ha): 1.0
- Herbicidal rating ORYSAT ([6]; rate 0.0625 kg/ha): 1.0
- Preemergence herbicidal rating CASOB [7, 13]: 0.0
- Preemergence herbicidal rating CASOB [7, 14]: 0.0
- Herbicidal rating GLXMAW ([8]; rate 0.0156 kg/ha): 4.0
- Herbicidal rating GLXMAW ([8]; rate 0.0313 kg/ha): 4.5
- Herbicidal rating GLXMAW ([8]; rate 0.0625 kg/ha): 4.5
- Preemergence herbicidal rating AMBEL [9, 13]: 0.0
- Preemergence herbicidal rating AMBEL [9, 14]: 0.0
- Herbicidal rating ECHCG ([10]; rate 0.0156 kg/ha): 0.0
- Herbicidal rating ECHCG ([10]; rate 0.0313 kg/ha): 0.0
- Herbicidal rating ECHCG ([10]; rate 0.0625 kg/ha): 0.0
- Herbicidal rating CHEAL ([11]; rate 0.0156 kg/ha): 3.0
- Herbicidal rating CHEAL ([11]; rate 0.0313 kg/ha): 3.0
- Herbicidal rating CHEAL ([11]; rate 0.0625 kg/ha): 4.0
- Herbicidal rating ZEAMX ([12]; rate 0.0156 kg/ha): 4.0
- Herbicidal rating ZEAMX ([12]; rate 0.0313 kg/ha): 4.5
- Herbicidal rating ZEAMX ([12]; rate 0.0625 kg/ha): 4.5

SMILES: CCOC(=O)CN1C(=O)C(CC(=O)O)SC1=Nc1cc(N2C(=O)CC(C(F)(F)F)CC2=O)c(F)cc1Cl (centres unmarked) [Compound 170, 2-{{2-Chloro-5-[2,6-dioxo-4-(trifluoromethyl)-piperidino]-4-fluorophenyl}imino}-4-oxo-3,5-thiazolidinediacetic acid, 3-ethyl ester]
- Preemergence herbicidal rating CHEAL ([1]; 0.0156 kg/ha): 9.0
- Preemergence herbicidal rating CHEAL ([1]; 0.0313 kg/ha): 9.0
- Preemergence herbicidal rating CHEAL ([1]; 0.0625 kg/ha): 9.0
- Preemergence herbicidal rating CHEAL ([1]; 0.1250 kg/ha): 9.0
- Preemergence herbicidal rating CHEAL ([1]; 0.2500 kg/ha): 9.0
- Herbicidal rating ABUTH ([2]; rate 0.0156 kg/ha): 9.0
- Herbicidal rating ABUTH ([2]; rate 0.0313 kg/ha): 9.0
- Herbicidal rating ABUTH ([2]; rate 0.0625 kg/ha): 9.0
- Herbicidal rating AMBEL ([4]; rate 0.0156 kg/ha): 9.0
- Herbicidal rating AMBEL ([4]; rate 0.0313 kg/ha): 9.0
- Herbicidal rating AMBEL ([4]; rate 0.0625 kg/ha): 9.0
- Preemergence herbicidal rating GALAP ([5]; 0.0156 kg/ha): 0.0
- Preemergence herbicidal rating GALAP ([5]; 0.0313 kg/ha): 0.0
- Preemergence herbicidal rating GALAP ([5]; 0.0625 kg/ha): 0.0
- Preemergence herbicidal rating GALAP ([5]; 0.1250 kg/ha): 0.0
- Preemergence herbicidal rating GALAP ([5]; 0.2500 kg/ha): 3.0
- Herbicidal rating ORYSAT ([6]; rate 0.0156 kg/ha): 2.0
- Herbicidal rating ORYSAT ([6]; rate 0.0313 kg/ha): 2.0
- Herbicidal rating ORYSAT ([6]; rate 0.0625 kg/ha): 2.5
- Preemergence herbicidal rating CASOB ([7]; 0.0156 kg/ha): 0.0
- Preemergence herbicidal rating CASOB ([7]; 0.0313 kg/ha): 0.0
- Preemergence herbicidal rating CASOB ([7]; 0.0625 kg/ha): 0.0
- Preemergence herbicidal rating CASOB ([7]; 0.1250 kg/ha): 3.0
- Preemergence herbicidal rating CASOB ([7]; 0.2500 kg/ha): 3.0
- Herbicidal rating GLXMAW ([8]; rate 0.0156 kg/ha): 7.5
- Herbicidal rating GLXMAW ([8]; rate 0.0313 kg/ha): 7.5
- Herbicidal rating GLXMAW ([8]; rate 0.0625 kg/ha): 7.5
- Preemergence herbicidal rating AMBEL ([9]; 0.0156 kg/ha): 0.0
- Preemergence herbicidal rating AMBEL ([9]; 0.0313 kg/ha): 0.0
- Preemergence herbicidal rating AMBEL ([9]; 0.0625 kg/ha): 4.0
- Preemergence herbicidal rating AMBEL ([9]; 0.1250 kg/ha): 9.0
- Preemergence herbicidal rating AMBEL ([9]; 0.2500 kg/ha): 9.0
- Herbicidal rating ECHCG ([10]; rate 0.0156 kg/ha): 1.0
- Herbicidal rating ECHCG ([10]; rate 0.0313 kg/ha): 1.0
- Herbicidal rating ECHCG ([10]; rate 0.0625 kg/ha): 1.0
- Herbicidal rating CHEAL ([11]; rate 0.0156 kg/ha): 4.0
- Herbicidal rating CHEAL ([11]; rate 0.0313 kg/ha): 9.0
- Herbicidal rating CHEAL ([11]; rate 0.0625 kg/ha): 9.0
- Herbicidal rating ZEAMX ([12]; rate 0.0156 kg/ha): 5.0
- Herbicidal rating ZEAMX ([12]; rate 0.0313 kg/ha): 6.0
- Herbicidal rating ZEAMX ([12]; rate 0.0625 kg/ha): 6.0
